For experiment [1], the target named is T1, serotonin S2 (5-HT2) receptors in rat cortex (Rattus norvegicus, UniProt P14842).
T1 construct: Serotonin S2 (5-HT2) receptors in membranes from rat; from tissue; host or cells: cerebral cortex membranes of male Wistar rats (printed 'conical tissue', a misprint for cortical)
Briefly: Inhibition of ^3H-ketanserin binding to serotonin S2 (5-HT2) receptors in rat cortex in vitro. The settings on record: 0.5 nM ^3H-ketanserin, rat cortex membranes, 37° C., 30 min. Here is the method: Method in Hyttel, Pharmacology & Toxicology, 61, 126-129, 1987.
Male Wistar (Mol:Wist) rats (125-250 g) are sacrificed and conical tissue is dissected and weighed. The tissue is homogenized (Ultra Turrax, 10 sec.) in 10 ml of ice-cold 50 mM tris buffer pH 7.7 (at 25° C.). The centrifuge glassware used in this step has been rinsed by sonication for 10 min. in ethanol. The homogenate is centrifuged twice at 20,000 g for 10 min. at 4° C. with rehomogenization of the pellet in 10 ml ice-cold buffer. The final pellet is homogenized in 500 vol (w/v)ice-cold buffer.
Incubation tubes kept on ice in triplicate receive 100 μl Of drug solution in water (or water for total binding) and 2000 μl of tissue suspension (final tissue content corresponds to 4 mg original tissue). […] After incubation for 30 min. the samples are filtered under vacuum (0-50 mBar) through Whatman GF/F filters (25 mm). The tubes are rinsed with 5 ml ice-cold buffer which are then poured on the filters. Thereafter, the filters are washed with 2×5 ml of buffer. The filters are placed in counting vials and 4 ml of appropriate scintillation fluid (e.g. Picofluor ™15) are added. After shaking for 1 h and storage 2 hrs in the dark the content of radioactivity is determined by liquid scintillation counting. Specific binding is obtained by subtracting the nonspecific binding in the presence of 1 μM mianserin. For determination of the inhibition of binding five concentrations of drugs covering 3 decades are used.
The IC50 value is determined as the concentration at which the binding is 50% of the total binding in control samples minus the nonspecific binding in the presence of 1 μM mianserin.

Experiment [2] has as its target dopamine D-2 receptors in rat corpus striatum (Rattus norvegicus, UniProt P61169). As to the kind of experiment: Inhibition of ^3H-spiperone (spiroperidol) binding to dopamine D-2 receptors in rat corpus striatum in vitro. The settings on record: 0.5 nM ^3H-spiperone, rat striatum membranes, 37° C., 10 min. Here is the method: By this method the inhibition by drugs of the binding of ^3 H-spiperone (=^3 H-spiroperidol) (0.5 nM) to dopamine D-2 receptors in membranes from rat corpus striatum is determined in vitro. Method and results in Hyttel & Larsen, J. Neurochem, 44, 1615-1622, 1985).
Male Wistar (Mol:Wistar) rats (125-250 g) are sacrificed and striatal tissue is dissected and weighed. The tissue is homogenized (Ultra Turrax, 10 sec.) in 10 ml of ice-cold 50 mM K-phosphate buffer pH 7.4 (at 25° C.). The homogenate is centrifuged twice at 20,000 g for 10 min. at 4° C. with rehomogenization of the pellet in 10 ml ice-cold buffer. The final pellet is homogenized in 1300 vol (w/v) ice-cold buffer.
Incubation tubes kept on ice in triplicate receive 100 μl of drug solution in water (or water for total binding) and 4000 μl Of tissue suspension (final tissue content corresponds to 3.08 mg original tissue). The binding experimental is initiated by addition of 100 μl of ^3 H-spiperone (final concentration 0.5 nM) and by placing the tubes in a 37° C. water bath. After incubation for 10 min. the samples are filtered under vacuum (0-50 mBar) through Whatman GF/F filters (25 mm). The tubes are rinsed with 5 ml ice-cold buffer which are then poured on the filters. Thereafter, the filters are washed with 2×5 ml of buffer. The filters are placed in counting vials and 4 ml of appropriate scintillation fluid (e.g. Picofluor ™15) are added. After shaking for 1 h and storage 2 hrs in the dark the content of radioactivity is determined by liquid scintillation counting. Specific binding is obtained by subtracting the nonspecific binding in the presence of 10 μM of 6,7-ADTN.
For determination of the inhibition of binding five concentrations of drugs covering 3 decades are used.
The measured cpm are plotted against drug concentration on semilogarithmic paper and the best fitting S-shaped curve is drawn. […] England, specific activity 15-25 Ci/mmol.

For experiment [3] the following is noted: literature (Klieser, Strauss 1988); cited from earlier work.
For experiment [4] the following is noted: literature (Colpart et al. 1985); cited from earlier work.
For experiment [5] the following is noted: literature (Janssen 1988); cited from earlier work.
For experiment [6] the following is noted: literature (Bersani et al. 1990); cited from earlier work.
For experiment [7] the following is noted: literature (Ceulemans et al. 1985); cited from earlier work.

Structures are written as SMILES. Counter-ions that a name gives are not always drawn.

T1 sequence (P14842 whole entry): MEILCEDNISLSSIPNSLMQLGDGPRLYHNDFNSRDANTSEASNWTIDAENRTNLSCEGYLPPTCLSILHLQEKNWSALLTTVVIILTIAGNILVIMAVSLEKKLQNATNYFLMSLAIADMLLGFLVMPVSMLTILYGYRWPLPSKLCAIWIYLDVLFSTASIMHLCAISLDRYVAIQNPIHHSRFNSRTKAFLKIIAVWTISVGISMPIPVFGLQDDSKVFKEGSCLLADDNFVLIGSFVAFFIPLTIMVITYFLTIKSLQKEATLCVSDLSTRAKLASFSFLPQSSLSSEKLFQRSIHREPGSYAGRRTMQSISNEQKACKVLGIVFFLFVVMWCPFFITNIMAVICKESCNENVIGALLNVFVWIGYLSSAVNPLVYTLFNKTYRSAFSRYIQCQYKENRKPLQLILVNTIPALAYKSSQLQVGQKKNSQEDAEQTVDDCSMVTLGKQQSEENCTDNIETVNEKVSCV
Sequence of dopamine D-2 receptors in rat corpus striatum (P61169 whole entry): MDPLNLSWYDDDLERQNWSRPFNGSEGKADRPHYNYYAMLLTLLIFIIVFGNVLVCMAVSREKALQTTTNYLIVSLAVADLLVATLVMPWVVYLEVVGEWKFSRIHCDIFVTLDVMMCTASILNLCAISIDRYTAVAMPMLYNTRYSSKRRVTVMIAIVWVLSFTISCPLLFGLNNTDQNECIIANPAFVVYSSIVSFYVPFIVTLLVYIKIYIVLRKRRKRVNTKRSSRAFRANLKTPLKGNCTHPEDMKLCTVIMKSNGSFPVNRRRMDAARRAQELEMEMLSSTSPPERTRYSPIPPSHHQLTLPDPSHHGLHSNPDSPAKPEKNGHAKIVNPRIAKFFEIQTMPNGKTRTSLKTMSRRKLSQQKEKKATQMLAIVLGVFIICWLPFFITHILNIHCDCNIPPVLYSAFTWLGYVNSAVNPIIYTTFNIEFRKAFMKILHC

As for `Cc1ccc2c(c1)c(-c1ccc(F)cc1)c(C)n2C1=CCN(CCN2CCNC2=O)CC1` [Compound 6a, 2,5-Dimethyl-3-(4-fluorophenyl)-1-[1-[2-(imidazolidin-2-on-1-yl)ethyl]-1,2,3,6-tetrahydropyridin-4-yl]-1H-indole], the IC50 in experiment [1] was determined as 2.8 nM; in experiment [2], 6300 nM.

In the case of `Cc1ccc2c(c1)c(-c1ccc(F)cc1)c(C)n2C1=CCN(C)CC1` [Compound 6b, 2,5-Dimethyl-3-(4-fluorophenyl)-1-(1-methyl-1,2,3,6-tetrahydropyridin-4-yl)-1H-indole], the IC50 in experiment [1] was determined as 3.8 nM; in experiment [2], 710 nM.

For `Cc1ccc2c(c1)c(-c1ccc(F)cc1)cn2C1=CCN(CCN2CCNC2=O)CC1` [Compound 6c, 3-(4-Fluorophenyl)-1-[1-[2-(imidazolidin-2-on-1-yl)ethyl]-1,2,3,6-tetrahydropyridin-4-yl]-5-methyl-1H-indole], the IC50 is 1.4 nM in experiment [1] and 320 nM in experiment [2].

For the compound `Cc1ccc2c(c1)c(-c1ccc(F)cc1)cn2C1=CCN(C)CC1` [Compound 6d, 3-(4-Fluorophenyl)-5-methyl-1-(1-methyl-1,2,3,6-tetrahydropyridin-4-yl)-1H-indole, maleate], the IC50 in experiment [1] turned out to be 4.4 nM; in experiment [2], 32 nM.

Turning to `Cc1c(-c2ccccc2)c2cc(Cl)ccc2n1C1=CCN(C)CC1` [Compound 6e, 5-Chloro-2-methyl-1-(1-methyl-1,2,3,6-tetrahydropyridin-4-yl)-3-phenyl-1H-indole, oxalate], the IC50 in experiment [1] worked out at 9.4 nM; in experiment [2], 1000 nM.

Take `O=C1NCCN1CCN1CC=C(n2cc(-c3ccc(F)cc3)c3cc(C(F)(F)F)ccc32)CC1` [Compound 6f, 3-(4-Fluorophenyl)-1-[1-[2-(imidazolidin-2-on-1-yl)ethyl]-1,2,3,6-tetrahydropyridin-4-yl]-5-trifluoromethyl-1H-indole]: the IC50 was determined as 3.6 nM in experiment [1] and 440 nM in experiment [2].

On to `Cc1ccc2c(c1)c(-c1ccc(F)cc1)c(C)n2C1CCN(CCN2CCNC2=O)CC1` [Compound 7a, 2,5-Dimethyl-3-(4-fluorophenyl)-1-[1-[2-(imidazolidin-2-on-1-yl)ethyl]-4-piperidyl]-1H-indole], for which the IC50 in experiment [1] was found to be 3.4 nM; in experiment [2], 6900 nM.

In the case of `O=C1NCCN1CCN1CCC(n2cc(-c3ccc(F)cc3)c3cc(C(F)(F)F)ccc32)CC1` [Compound 7b, 3-(4-Fluorophenyl)-1-[1-[2-(imidazolidin-2-on-1-yl)ethyl]-4-piperidyl]-5-trifluoromethyl-1H-indole], the figures for the IC50 in experiment [1] and in experiment [2] were 6.2 nM and > 1000 nM, respectively.

For the compound `Cc1c(-c2ccccc2)c2ccccc2n1C1CCN(CCN2CCNC2=O)CC1` [Compound 7c, 1-[1-[2-(Imidazolidin-2-on-1-yl)ethyl]-4-piperidyl]-2-methyl-3-phenyl-1H-indole], the IC50 in experiment [1] was 7.8 nM; in experiment [2], 5300 nM.

On to `Cc1ccc2c(c1)c(-c1ccc(F)cc1)c(C)n2C1CCN(C)CC1` [Compound 9a, 2,5-Dimethyl-3-(4-fluorophenyl)-1-(1-methyl-4-piperidyl)-1H-indole], for which the IC50 in experiment [1] came to 5.3 nM; in experiment [2], 2600 nM.

Consider `Cc1c(-c2ccccc2)c2cc(Cl)ccc2n1C1CCN(C)CC1` [Compound 9b, 5-Chloro-2-methyl-3-phenyl-1-(1-methyl-4-piperidyl)-1H-indole], for which the IC50 in experiment [1] turned out to be 17 nM; in experiment [2], 2900 nM.

On to `Cc1ccc2c(c1)c(-c1ccc(F)cc1)cn2C1CCN(C)CC1` [Compound 11a, 3-(4-Fluorophenyl)-5-methyl-1-(1-methyl-4-piperidyl)-1H-indole, fumarate], for which the IC50 in experiment [1] was 4.5 nM; in experiment [2] it was 540 nM.

Consider `Cc1ccc2c(c1)c(-c1ccc(F)cc1)cn2C1CCN(CCNC(=S)N(C)C)CC1` [Compound 13a, 1-[1-[2-(3,3-Dimethyl-1-thioureido)ethyl]-4-piperidyl]-3-(4-fluorophenyl)-5-methyl-1H-indole], for which the IC50 in experiment [1] amounted to 3.7 nM; in experiment [2], 250 nM.

`Cc1ccc2c(c1)c(-c1ccc(F)cc1)cn2C1CCN(CCNC(=O)N(C)C)CC1` [Compound 13b, 1-[1-[2-(3,3-Dimethyl-1-ureido)ethyl]-4-piperidyl]-3-(4-fluorophenyl)-5-methyl-1H-indole]: the concentration for half-maximal inhibition (IC50) is 2.3 nM in experiment [1] and 260 nM in experiment [2].

Regarding `CNC(=O)N(C)CCN1CCC(n2cc(-c3ccc(F)cc3)c3cc(C)ccc32)CC1` [Compound 15a, 1-[1-[2-(1,3-Dimethyl-1-ureido)ethyl]-4-piperidyl]-3-(4-fluorophenyl)-5-methyl-1H-indole, hydrochloride], the IC50 in experiment [1] is 1.8 nM; in experiment [2], > 1000 nM.

Take `Cc1ccc2c(c1)c(-c1ccc(F)cc1)cn2C1CCN(CCO)CC1` [Compound 16a, 3-(4-Fluorophenyl)-1-[1-(2-hydroxyethyl)-4-piperidyl]-5-methyl-1H-indole, oxalate]: the IC50 in experiment [1] amounted to 22 nM; in experiment [2], 1500 nM.

Regarding `Cc1ccc2c(c1)C(c1ccc(F)cc1)CN2C1CCN(CCN2CCNC2=O)CC1` (stereo not drawn) [Compound 18b, 2,3-Dihydro-3-(4-fluorophenyl)-1-[1-[2-(imidazolidin-2-on-1-yl)ethyl]-4-piperidyl]-5-methyl-1H-indole], the half-maximal inhibitory concentration (IC50) in experiment [1] was 4.3 nM; in experiment [2], 1100 nM.

For `Cc1ccc2c(c1)c(-c1ccc(F)cc1)cn2N1CCN(C)CC1` [Compound 20a, 3-(4-Fluorophenyl)-5-methyl-1-(1-methylpiperazin-4-yl)-1H-indole], the IC50 was 13 nM in experiment [1] and 3900 nM in experiment [2].

`CC(=O)N1CCN(CCN2CCC(n3cc(-c4ccc(F)cc4)c4cc(C)ccc43)CC2)C1=O` [Compound 21a, 1-[1-[2-(3-Acetylimidazolidin-2-on-1-yl)ethyl]-4-piperidyl]-3-(4-fluorophenyl)-5-methyl-1H-indole, oxalate]: the IC50 turned out to be 18 nM in experiment [1] and 890 nM in experiment [2].

Regarding `Cc1ccc2c(c1)c(-c1ccc(F)cc1)c(Cl)n2C1CCN(CCN2CCN(C(C)C)C2=O)CC1` [Compound 27a, 2-Chloro-3-(4-fluorophenyl)-5-methyl-1-[1-[2-[3-(2-propyl)imidazolidin-2-on-1-yl]ethyl]-4-piperidyl]-1H-indole], the figures for the IC50 in experiment [1] and in experiment [2] were 10 nM and 3200 nM, respectively.

With `Cc1nc2sccn2c(=O)c1CCN1CCC(=C(c2ccc(F)cc2)c2ccc(F)cc2)CC1` [Ritanserin], the “antidepressant effect and depressive symptoms of schizophrenia (in words)” value in experiment [3] is “shown to be an antidepressant and to improve depressive symptoms of schizophrenia”. In addition, the “anxiolytic-like effect (in words)” value in experiment [4] was “exert effects in an animal test reminiscent of anxiolytic drug activity”. The “quality of sleep (in words)” value in experiment [5] was “shown to improve the quality of sleep”. In addition, in experiment [6], the “relief of neuroleptic-induced parkinsonism (in words)” value is “found to relieve neuroleptic-induced parkinsonism”.

In the case of `Cc1nc2n(c(=O)c1CCN1CCC(C(=O)c3ccc(F)cc3)CC1)CCS2` [setoperone], the “improvement of negative symptoms of schizophrenia (in words)” value in experiment [7] is recorded as “blockade of 5-HT2 receptors may be related to improvement of negative symptoms of schizophrenia”.

The IC50 is the point on the concentration scale where inhibition reaches its midpoint.
